From ChEMBL document CHEMBL1143265, “Discovery of thiophene inhibitors of polo-like kinase” (Bioorg Med Chem Lett, 2009)

Experiments:
[1] = molecular target: Serine/threonine-protein kinase PLK1 (Homo sapiens, UniProt P53350); experiment: Inhibition of PLK1 expressed in baculovirus-infected Trichoplusia-ni cells by scintillation proximity assay
HCT-116 = experiment: Antiproliferative activity against human HCT116 cells after 3 days by methylene blue stain technique; type: functional, cell-based; conditions: HCT-116, 72 h
PC-3 = experiment: Antiproliferative activity against human PC3 cells after 3 days by methylene blue stain technique; type: functional, cell-based; conditions: PC-3, 72 h
A549 = experiment: Antiproliferative activity against human A549 cells after 3 days by methylene blue stain technique; type: functional, cell-based; conditions: A549, 72 h
[2] = Clearance in mouse at 6.7 mg/kg, iv; type: ADME, organism-based; design: dose 6.7 mg/kg, route intravenous; conditions: in vivo
[3] = molecular target: Vascular endothelial growth factor receptor 3 (Homo sapiens, UniProt P35916); experiment: Inhibition of VEGFR3
Vascular endothelial growth factor receptor 3, sequence (P35916 whole entry): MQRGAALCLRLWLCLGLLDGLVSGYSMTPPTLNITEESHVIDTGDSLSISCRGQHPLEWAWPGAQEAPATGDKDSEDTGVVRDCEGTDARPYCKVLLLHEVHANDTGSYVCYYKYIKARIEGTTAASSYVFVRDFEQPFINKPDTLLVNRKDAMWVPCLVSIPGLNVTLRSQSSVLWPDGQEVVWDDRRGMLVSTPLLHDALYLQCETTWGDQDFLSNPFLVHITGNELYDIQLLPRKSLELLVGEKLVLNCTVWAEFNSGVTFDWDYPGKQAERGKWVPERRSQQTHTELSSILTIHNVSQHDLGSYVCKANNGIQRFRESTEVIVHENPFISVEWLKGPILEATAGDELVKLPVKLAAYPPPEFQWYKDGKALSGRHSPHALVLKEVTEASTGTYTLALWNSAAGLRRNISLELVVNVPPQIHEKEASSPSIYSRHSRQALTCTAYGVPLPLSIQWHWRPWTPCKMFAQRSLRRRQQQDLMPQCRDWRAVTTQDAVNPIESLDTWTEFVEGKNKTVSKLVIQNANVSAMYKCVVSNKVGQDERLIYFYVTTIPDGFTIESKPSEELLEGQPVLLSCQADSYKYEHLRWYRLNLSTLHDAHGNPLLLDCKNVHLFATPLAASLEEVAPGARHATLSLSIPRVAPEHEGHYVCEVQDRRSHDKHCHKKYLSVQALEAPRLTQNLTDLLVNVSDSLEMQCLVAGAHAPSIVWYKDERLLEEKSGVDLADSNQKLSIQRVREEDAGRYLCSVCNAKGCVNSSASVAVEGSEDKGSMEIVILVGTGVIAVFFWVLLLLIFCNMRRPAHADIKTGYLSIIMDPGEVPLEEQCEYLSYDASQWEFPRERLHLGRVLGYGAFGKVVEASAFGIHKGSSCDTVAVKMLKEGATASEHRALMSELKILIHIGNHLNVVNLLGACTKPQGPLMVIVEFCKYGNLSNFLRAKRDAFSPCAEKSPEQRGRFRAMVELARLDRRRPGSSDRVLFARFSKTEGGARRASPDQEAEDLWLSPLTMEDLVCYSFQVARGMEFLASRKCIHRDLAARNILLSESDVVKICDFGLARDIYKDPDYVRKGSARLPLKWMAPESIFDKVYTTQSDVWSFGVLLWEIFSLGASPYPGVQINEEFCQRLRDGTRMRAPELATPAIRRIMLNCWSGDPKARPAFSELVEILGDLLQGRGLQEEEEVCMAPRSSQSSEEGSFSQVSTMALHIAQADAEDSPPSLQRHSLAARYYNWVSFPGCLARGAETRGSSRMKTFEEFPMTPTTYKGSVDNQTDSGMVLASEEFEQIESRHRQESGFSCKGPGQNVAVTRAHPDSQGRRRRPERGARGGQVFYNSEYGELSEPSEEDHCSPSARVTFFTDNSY

HN5 = experiment: Antiproliferative activity against human HN5 cells after 3 days by methylene blue stain technique; type: functional, cell-based; conditions: HN5, 72 h
[4] = molecular target: Proto-oncogene tyrosine-protein kinase Src (Homo sapiens, UniProt P12931); experiment: Inhibition of Src
Proto-oncogene tyrosine-protein kinase Src, sequence (P12931 2-536 limits assumed): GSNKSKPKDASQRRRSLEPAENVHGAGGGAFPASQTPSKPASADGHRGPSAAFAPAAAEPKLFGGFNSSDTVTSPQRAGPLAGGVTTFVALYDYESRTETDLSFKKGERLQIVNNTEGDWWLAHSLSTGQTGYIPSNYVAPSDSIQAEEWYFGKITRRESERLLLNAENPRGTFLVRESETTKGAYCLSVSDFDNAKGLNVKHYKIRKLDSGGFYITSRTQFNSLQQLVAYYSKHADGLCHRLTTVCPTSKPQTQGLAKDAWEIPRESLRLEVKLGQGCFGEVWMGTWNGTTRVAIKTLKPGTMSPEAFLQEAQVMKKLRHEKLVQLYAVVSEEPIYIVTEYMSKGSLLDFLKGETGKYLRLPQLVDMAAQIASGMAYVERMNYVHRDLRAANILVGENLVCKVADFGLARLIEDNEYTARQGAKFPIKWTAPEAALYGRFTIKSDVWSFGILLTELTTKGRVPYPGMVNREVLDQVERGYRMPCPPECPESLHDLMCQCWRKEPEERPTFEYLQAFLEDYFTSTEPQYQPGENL

[5] = Oral bioavailability in mouse at 10 mg/kg; type: ADME, organism-based; conditions: in vivo
NCI-H460 = experiment: Antiproliferative activity against human H460 cells after 3 days by methylene blue stain technique; type: functional, cell-based; conditions: NCI-H460, 72 h
NCI-N87 = experiment: Antiproliferative activity against human NCI-N87 cells after 3 days by methylene blue stain technique; type: functional, cell-based; conditions: NCI-N87, 72 h
MCF7 = experiment: Antiproliferative activity against human MCF7 cells after 3 days by methylene blue stain technique; type: functional, cell-based; conditions: MCF7, 72 h
[6] = molecular target: Epidermal growth factor receptor (Homo sapiens, UniProt P00533); experiment: Inhibition of EGFR
Epidermal growth factor receptor, sequence (P00533 whole entry): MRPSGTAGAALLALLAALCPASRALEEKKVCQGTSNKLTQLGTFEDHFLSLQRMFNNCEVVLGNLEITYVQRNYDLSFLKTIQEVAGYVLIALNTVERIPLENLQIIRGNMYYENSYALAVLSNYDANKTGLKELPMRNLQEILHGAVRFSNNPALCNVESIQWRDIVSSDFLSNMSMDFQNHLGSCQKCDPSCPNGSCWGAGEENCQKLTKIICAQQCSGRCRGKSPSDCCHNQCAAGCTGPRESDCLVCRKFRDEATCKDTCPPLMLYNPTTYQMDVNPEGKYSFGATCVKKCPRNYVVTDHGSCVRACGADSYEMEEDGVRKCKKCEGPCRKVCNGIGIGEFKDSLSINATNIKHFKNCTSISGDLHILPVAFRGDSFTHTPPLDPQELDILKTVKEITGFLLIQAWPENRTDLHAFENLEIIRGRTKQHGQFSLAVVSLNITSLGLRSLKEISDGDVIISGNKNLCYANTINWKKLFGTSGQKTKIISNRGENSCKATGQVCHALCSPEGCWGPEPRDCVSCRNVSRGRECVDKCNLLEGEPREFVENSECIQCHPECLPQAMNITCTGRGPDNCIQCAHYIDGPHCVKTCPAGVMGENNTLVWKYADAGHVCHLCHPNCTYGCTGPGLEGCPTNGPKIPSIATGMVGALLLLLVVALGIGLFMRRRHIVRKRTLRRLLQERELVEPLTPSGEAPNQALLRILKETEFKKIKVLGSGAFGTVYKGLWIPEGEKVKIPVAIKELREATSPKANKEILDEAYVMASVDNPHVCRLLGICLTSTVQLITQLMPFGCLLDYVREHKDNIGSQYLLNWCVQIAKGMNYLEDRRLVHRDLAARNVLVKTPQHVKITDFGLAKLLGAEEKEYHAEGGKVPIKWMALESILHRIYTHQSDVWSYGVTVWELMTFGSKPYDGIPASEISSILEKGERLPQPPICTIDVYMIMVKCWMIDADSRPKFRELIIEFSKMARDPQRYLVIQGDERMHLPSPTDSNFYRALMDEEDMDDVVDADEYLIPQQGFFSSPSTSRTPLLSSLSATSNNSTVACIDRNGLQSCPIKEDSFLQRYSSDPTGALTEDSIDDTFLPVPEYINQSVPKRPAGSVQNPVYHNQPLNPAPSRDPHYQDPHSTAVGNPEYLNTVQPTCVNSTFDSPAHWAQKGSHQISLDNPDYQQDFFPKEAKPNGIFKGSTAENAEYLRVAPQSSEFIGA

RKO = experiment: Antiproliferative activity against human RKO cells after 3 days by methylene blue stain technique; type: functional, cell-based; conditions: 72 h
[7] = Volume of distribution at steady state in mouse at 6.7 mg/kg, iv; type: ADME, organism-based; design: dose 6.7 mg/kg, route intravenous; conditions: in vivo, read-out: Vdss
[8] = molecular target: Mitogen-activated protein kinase 14 (Homo sapiens, UniProt Q16539); experiment: Inhibition of p38alpha
Mitogen-activated protein kinase 14, sequence (Q16539 whole entry): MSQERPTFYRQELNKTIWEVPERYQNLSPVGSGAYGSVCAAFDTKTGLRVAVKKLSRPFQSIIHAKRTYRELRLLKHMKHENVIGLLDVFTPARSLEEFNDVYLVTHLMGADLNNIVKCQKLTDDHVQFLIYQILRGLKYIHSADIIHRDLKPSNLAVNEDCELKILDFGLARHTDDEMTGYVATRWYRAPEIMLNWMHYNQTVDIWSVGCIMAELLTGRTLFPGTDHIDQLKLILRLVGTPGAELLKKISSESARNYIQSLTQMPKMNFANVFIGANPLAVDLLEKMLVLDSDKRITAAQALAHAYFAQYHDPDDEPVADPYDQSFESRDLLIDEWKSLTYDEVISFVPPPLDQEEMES

[9] = AUC in mouse at 10 mg/kg, po; type: ADME, organism-based; design: dose 10 mg/kg, route oral; conditions: plasma
[10] = Inhibition of GSK3

Serine/threonine-protein kinase PLK1, sequence (P53350 whole entry): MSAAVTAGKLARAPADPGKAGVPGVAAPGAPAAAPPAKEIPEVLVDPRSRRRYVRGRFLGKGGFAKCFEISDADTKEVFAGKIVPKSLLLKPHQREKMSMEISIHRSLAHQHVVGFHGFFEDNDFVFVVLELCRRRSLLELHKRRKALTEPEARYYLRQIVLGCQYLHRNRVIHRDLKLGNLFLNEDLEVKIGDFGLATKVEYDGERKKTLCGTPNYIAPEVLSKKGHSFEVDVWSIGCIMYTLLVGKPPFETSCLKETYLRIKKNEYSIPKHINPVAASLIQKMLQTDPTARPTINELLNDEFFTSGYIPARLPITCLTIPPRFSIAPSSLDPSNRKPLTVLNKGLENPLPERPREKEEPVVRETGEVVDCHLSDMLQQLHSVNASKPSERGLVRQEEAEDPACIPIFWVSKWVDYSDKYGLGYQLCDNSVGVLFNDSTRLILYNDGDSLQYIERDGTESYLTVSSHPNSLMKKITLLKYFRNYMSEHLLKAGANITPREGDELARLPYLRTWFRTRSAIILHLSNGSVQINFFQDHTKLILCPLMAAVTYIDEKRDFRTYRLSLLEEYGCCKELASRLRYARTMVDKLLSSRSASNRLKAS

Row | Structure (SMILES) | IC50 [1] [nM] | IC50 (HCT-116) [nM] | other results
1 | COc1cc2ncn(-c3cc(OCc4ccccc4C#N)c(C(N)=O)s3)c2cc1OC | 6 | 2630 | –
2 | COc1cc2ncn(-c3cc(OCc4ccccc4Cl)c(C(N)=O)s3)c2cc1OC [GW852849X] | 2 | 999 | –
3 | Cc1ccccc1COc1cc(-n2cnc3ccccc32)sc1C(N)=O | 12 | – | –
4 | COc1cc2ncn(-c3cc(OCc4ccc(S(C)(=O)=O)cc4)c(C(N)=O)s3)c2cc1OC | 75 | > 30000 | –
5 | NC(=O)c1sc(-n2cnc3ccccc32)cc1OCc1ccc(Cl)cc1 | 100 | – | –
6 | COc1cc2ncn(-c3cc(OCc4ccnc(Br)c4)c(C(N)=O)s3)c2cc1OC | 14 | 1770 | –
7 | NC(=O)c1sc(-n2cnc3ccccc32)cc1OCc1ccccc1Br [GSK-1023156A] | 11 | – | –
8 | COc1ccc2c(c1)ncn2-c1cc(OCc2ccccc2C(F)(F)F)c(C(N)=O)s1 | 8 | 2700 | –
9 | COc1cc2ncn(-c3cc(OCc4ccccc4C(C)=O)c(C(N)=O)s3)c2cc1OC | 17 | 2640 | –
10 | COc1cc2ncn(-c3cc(OCc4ccccc4C(F)(F)F)c(C(=O)N(C)C)s3)c2cc1OC [GSK-1030062A] | > 1000 | – | –
11 | NC(=O)c1sc(-n2cnc3cc(C(F)(F)F)ccc32)cc1OCc1ccccc1Br [GW853609X] | 300 | > 30000 | –
12 | COc1ccc(COc2cc(-n3cnc4ccccc43)sc2C(N)=O)cc1 | 35 | – | –
13 | COc1cc2ncn(-c3cc(OCc4ccncc4)c(C(N)=O)s3)c2cc1OC | 130 | 21000 | –
14 | COc1cc2ncn(-c3cc(OCC4CCCC4)c(C(N)=O)s3)c2cc1OC | 34 | 3380 | –
15 | COc1ccc2ncn(-c3cc(OCc4ccccc4C(F)(F)F)c(C(N)=O)s3)c2c1 | 2 | 1230 | –
16 | Cc1ccccc1COc1cc(-n2cnc3cc(Cl)ccc32)sc1C(N)=O | 21 | > 28000 | –
17 | COc1cc2ncn(-c3cc(OCc4ccccc4C(F)(F)F)c(C(N)=O)s3)c2cc1OC [GW843682X] | 2 | 699 | IC50 (PC-3): 6820 nM; IC50 (A549): 411 nM; clearance [2]: 47.4 mL/min/kg; IC50 [3]: 92 nM; IC50 (HN5): 678 nM; IC50 [4]: > 30000 nM; bioavailability [5]: 14%; IC50 (NCI-H460): 380 nM; IC50 (NCI-N87): 601 nM; IC50 (MCF7): 558 nM; IC50 [6]: > 48000 nM; IC50 (RKO): 398 nM; Vd [7]: 1.5 L/kg; IC50 [8]: > 15000 nM; AUC [9]: 489 ng·h/mL; IC50 [10]: > 15000 nM
18 | COc1cc2ncn(-c3cc(OCc4ccccc4OC(F)(F)F)c(C(N)=O)s3)c2cc1OC | 5 | 1150 | –
19 | CS(=O)(=O)c1ccc2ncn(-c3cc(OCc4ccccc4C(F)(F)F)c(C(N)=O)s3)c2c1 | 12 | 2960 | –
20 | COc1cc2ncn(-c3cc(OCc4ccccc4C(F)(F)F)c(C(=O)O)s3)c2cc1OC | – | 7660 | –
21 | COc1ccccc1COc1cc(-n2cnc3ccccc32)sc1C(N)=O | 12 | – | –
22 | COc1cc2ncn(-c3cc(OCc4ccccc4Br)c(C(N)=O)s3)c2cc1OC | 2 | 926 | –
23 | COc1cc2ncn(-c3cc(OCC4CCCCC4)c(C(N)=O)s3)c2cc1OC | – | 3090 | –
24 | CNC(=O)c1sc(-n2cnc3cc(OC)c(OC)cc32)cc1OCc1ccccc1C(F)(F)F [GSK-1030061A] | > 1000 | – | –
25 | NC(=O)c1sc(-n2cnc3ccc(C(F)(F)F)cc32)cc1OCc1ccccc1Br [GW853606X] | 9 | 3590 | –
26 | COC(=O)c1sc(-n2cnc3cc(OC)c(OC)cc32)cc1OCc1ccccc1C(F)(F)F [GSK-1030058A] | > 1000 | – | –
27 | COc1cc2ncn(-c3cc(OCc4ccoc4)c(C(N)=O)s3)c2cc1OC | 190 | 19000 | –

Row | Structure (SMILES) | IC50 [1] [nM] | IC50 (HCT-116) [nM] | other results
28 | Cc1cccc(COc2cc(-n3cnc4ccccc43)sc2C(N)=O)c1 | 12 | – | –
29 | COc1cc2ncn(-c3cc(OCc4ccccc4C(F)(F)F)c(C(N)=S)s3)c2cc1OC | 6 | > 30000 | –
30 | Cc1ccc(COc2cc(-n3cnc4ccccc43)sc2C(N)=O)cc1 | 70 | – | –
31 | NC(=O)c1sc(-n2cnc3ccccc32)cc1OCc1ccccc1F | 14 | – | –
32 | COc1cc2ncn(-c3cc(OCc4cccc(N(C)C)c4)c(C(N)=O)s3)c2cc1OC | 31 | 3470 | –
33 | COc1cc2ncn(-c3cc(OCc4ccco4)c(C(N)=O)s3)c2cc1OC | 27 | > 25000 | –
34 | COc1cc2ncn(-c3cc(OCCc4ccccc4)c(C(N)=O)s3)c2cc1OC [GSK-204925A] | – | 24100 | –
35 | COc1cc2ncn(-c3cc(OCc4sccc4Cl)c(C(N)=O)s3)c2cc1OC | 2 | 1480 | –
36 | COc1cc2ncn(-c3cc(OCc4ccccc4C(F)(F)F)c(C#N)s3)c2cc1OC | 700 | – | –
37 | COc1cc2ncn(-c3cc(OCc4ccccc4C(F)(F)F)c(C(C)=O)s3)c2cc1OC [GSK-1030059A] | 85 | – | –
38 | COc1ccc(COc2cc(-n3cnc4cc(OC)c(OC)cc43)sc2C(N)=O)cc1 | 13 | 12100 | –
39 | COc1cc2ncn(-c3cc(OCc4cccc(N)c4)c(C(N)=O)s3)c2cc1OC | 21 | 2270 | –
40 | NC(=O)c1sc(-n2cnc3ccccc32)cc1OCc1cccc(Cl)c1 | 22 | – | –
41 | NC(=O)c1sc(-n2cnc3ccccc32)cc1OCc1ccccc1Cl | 12 | – | –
42 | COc1cc2ncn(-c3cc(OCc4ccccc4S(C)(=O)=O)c(C(N)=O)s3)c2cc1OC | 31 | 5430 | –
43 | COc1cc2ncn(-c3cc(OCc4ccccc4C(F)(F)F)c(-c4nnn[nH]4)s3)c2cc1OC | – | > 30000 | –
44 | COc1ccccc1COc1cc(-n2cnc3cc(OC)c(OC)cc32)sc1C(N)=O | 8 | 2110 | –
45 | COc1cc2ncn(-c3cc(OCc4ccsc4)c(C(N)=O)s3)c2cc1OC | 17 | 1520 | –
46 | NC(=O)c1sc(-n2cnc3ccccc32)cc1OCc1ccccc1 | 61 | – | –
47 | Cc1ccccc1COc1cc(-n2cnc3ccc(Cl)cc32)sc1C(N)=O | 4 | 1690 | –
48 | COc1cc2ncn(-c3cc(OCc4cccs4)c(C(N)=O)s3)c2cc1OC [GSK-312948A] | 11 | 1540 | –
49 | COc1cccc(COc2cc(-n3cnc4ccccc43)sc2C(N)=O)c1 [GW804482X] | 28 | – | –
50 | COc1cc2ncn(-c3cc(OCCCc4ccccc4)c(C(N)=O)s3)c2cc1OC | – | 7750 | –
51 | COc1cc2ncn(-c3cc(OCc4ccccc4)c(C(N)=O)s3)c2cc1OC | 12 | 1090 | –
52 | COc1cc2ncn(-c3cc(OCc4cccc(C#N)c4)c(C(N)=O)s3)c2cc1OC | 99 | > 30000 | –
53 | CS(=O)(=O)c1ccc2c(c1)ncn2-c1cc(OCc2ccccc2C(F)(F)F)c(C(N)=O)s1 | 250 | > 30000 | –
